Converted amounts (≈) assume the structure as drawn. Where a SMILES comes first, the peptide text is derived from it. The star is where a group is joined. Stearoyl = CCCCCCCCCCCCCCCCCC(=O)*
How the values were obtained:
[1] = system: A. baumannii ATCC BAA 1605; type: cell-based, Acinetobacter baumannii; details: ATCC BAA 1605, 18 h
Protocol: (§1) The Acinetobacter baumannii ATCC BAA-1605, Enterococcus faecium ATCC 700221, Klebsiella aerogenes ATCC 13048, Klebsiella pneumoniae ATCC 700603, Pseudomonas aeruginosa ATCC 9027, Staphylococcus aureus ATCC 33591, Candida glabrata ATCC 15126, strains were acquired from the American Type Culture Collection (ATCC). All the strains were stored at −80 °C in Roti-Store cryo vials and were transferred into fresh Mueller–Hinton broth (MHB, Becton Dickinson, Warsaw, Poland) for bacteria or RPMI-1640 (Sigma-Aldrich, Steinheim, Germany) for fungi before the tests and incubated for 24 h at 37 °C. Then, the cultures were seeded on the Mueller–Hinton agar (BioMaxima, Lublin, Poland) or Sabouraud dextrose agar (SDA, BioMaxima, Lublin, Poland) plates, respectively, and incubated as just mentioned. These agar cultures were used for further microbiological assays. Cell densities for all assays were adjusted spectrophotometrically (Multiskan GO Microplate Spectrophotometer, Thermo Fisher Scientific, Vantaa, Finland) at 600 and 530 nm for bacteria and fungi, respectively.
(§2) The MICs were determined using a broth microdilution method according to the Clinical and Laboratory Standard Institute guidelines. For this purpose, initial inoculums of bacteria (5 × 10^5 CFU/mL) in MHB and yeasts (2 × 10^3 CFU/mL) in RPMI-1640 with 2% D-glucose were exposed to the ranging concentration of lipopeptides (1–512 μg/mL) and incubated at 37 °C for 18 h and 24 h, respectively. The experiments were conducted on 96-well microtiter polystyrene plates (Kartell, Italy). The growth was assessed visually after incubation and the MIC was assumed as the lowest peptide concentration at which a noticeable growth of microorganisms was inhibited. All experiments were conducted in triplicate.

P. aeruginosa ATCC 9027 = type: cell-based, Pseudomonas aeruginosa; details: ATCC 9027, 18 h
Protocol: as §1, §2

K. aerogenes ATCC 13048 = type: cell-based, Klebsiella aerogenes; details: ATCC 13048, 18 h
Protocol: as §1, §2

C. glabrata ATCC 15126 = type: cell-based, Candida glabrata; details: ATCC 15126, 24 h
Protocol: as §1, §2

MTT assay, cytotoxicity = type: cell-based, human; details: human, HaCaT keratinocytes, 24 h incubation at 37 °C, 0.5–500 μg/mL, six replicates per concentration, repeated at least twice
Protocol: To evaluate the cytotoxicity of the test peptides (IC50), the classic MTT assay on 96-well plates was performed for human keratinocytes (HaCaT) which were acquired from the ATCC. The assay was based on colorimetric determination of the cell metabolic activity where the color intensity reflected the number of live cells that could be measured spectrophotometrically. The cell line was cultured in a Dulbecco’s modified Eagle Medium (Invitrogen) supplemented with 10% fetal bovine serum (v/v), 100 units/mL of penicillin, 100 μg/mL of streptomycin, and 2 mM L-glutamine and was kept at 37 °C in a humidified 5% CO2 incubator. Briefly, a day after plating of 500 cells per well, a series of concentrations (0.5–500 μg/mL) of the test compounds were applied. DMSO was added to the control cells at a final concentration of 1.0% (v/v), which was related to the maximum concentration of the solvent compounds used in the experiment. After 24 h of incubation at 37 °C (humidified 5% CO2 incubator) with the peptides, a medium containing 1 mg/mL of MTT was added to the wells up to a final concentration of 0.5 mg/mL. Subsequently, the plates were incubated at 37 °C for 4 h. Then, the medium was aspirated, and the formazan product was solubilized with DMSO. The background absorbance at 630 nm was subtracted from that at 570 nm for each well (Epoch, BioTek Instruments, Winooski, VT, USA). Six replicates were conducted for each concentration. All experiments were repeated at least twice and the resulting IC50 values were calculated with a GraFit 7 software (v. 7.0, Erithacus, Berkley, CA, USA).
The selectivity indexes were calculated for all the strains as IC50/MIC. According to IC50, in most cases, glycosylation caused only a slight decrease in toxicity. However, in contrast with SI calculated for HC50, the differences between USCLs and gUSCLs are not so distinct. […] Moreover, toxicity of USCLs and gUSCLs is high and exceeds their antimicrobial activity. The lipopetides were not selective against Gram-negative strains (K. pneumoniae, A. baumannii, P. aeruginosa, K. aerogenes) over human cells. A few USCLs were selective (SI > 1) against E. faecium and S. aureus with SI up to 1.87; and some gUSCLs were selective against E. faecium but not against S. aureus, with SI between 0.63 and 1.73. […] In this case, SI of gUSCLs was noticeably […] than that of corresponding parent USCLs (2.07, 1.99, 2.67 vs. 2.53, 2.36, 3.46, respectively). Selectivity indexes were plotted against adjusted retention time (Figures S15–S21). A moderate linear correlation was found in USCLs and K. pneumoniae, C. glabrata, and gUSCLs and K. pneumoniae, K. aerogenes (R^2 between 0.6064 and 0.6481). A relatively high linear correlation was obtained for USCLs and K. aerogenes (R^2 of 0.8214) and also for gUSCLs and C. glabrata (R^2 of 0.9223).

MIC [1]: 32 µg/mL (≈ 46.9 µM) | MIC (P. aeruginosa ATCC 9027): 64 µg/mL (≈ 93.7 µM) | MIC (K. aerogenes ATCC 13048): 16 µg/mL (≈ 23.4 µM) | MIC (C. glabrata ATCC 15126): 4 µg/mL (≈ 5.86 µM)
SMILES: CCCCCCCCCCCCCCCCCC(=O)N[C@@H](CO)C(=O)N[C@@H](CCCNC(=N)N)C(=O)N[C@@H](CCCNC(=N)N)C(N)=O [Peptide 7, C18-SRR-NH2] (Stearoyl-Ser-Arg-Arg-NH2)
IC50 at 24 h (MTT assay, cytotoxicity): 8.28 ± 1.18 µg/mL (≈ 12.1 µM)

Source: PMC9855884, “Glycosylated Lipopeptides—Synthesis and Evaluation of Antimicrobial Activity and Cytotoxicity” (Biomolecules, 2023)
